Test results: BindingDB's records for doi:10.1021/cb100060v (Binghamton University, 2010)

The compounds below were run against T1, Tubulin--tyrosine ligase (Homo sapiens, UniProt Q8NG68) (assay: [3H]-Tyr Incorporation Assay). Details: pH 6.8; 37 °C.
T1 sequence (Q8NG68 whole entry): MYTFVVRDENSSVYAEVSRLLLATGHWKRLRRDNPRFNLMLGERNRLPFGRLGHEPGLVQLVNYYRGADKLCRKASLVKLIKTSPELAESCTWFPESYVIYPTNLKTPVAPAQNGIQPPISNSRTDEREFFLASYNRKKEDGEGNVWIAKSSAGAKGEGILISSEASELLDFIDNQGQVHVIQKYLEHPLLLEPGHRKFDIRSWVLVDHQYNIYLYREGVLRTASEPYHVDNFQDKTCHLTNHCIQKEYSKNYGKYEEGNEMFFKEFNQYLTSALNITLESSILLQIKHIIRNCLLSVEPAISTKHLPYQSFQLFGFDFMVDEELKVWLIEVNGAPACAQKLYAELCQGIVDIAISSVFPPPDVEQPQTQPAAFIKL
Source text: Inhibition of [3H]-L-tyrosine incorporation into tubulin by enzyme tubulin tyrosine ligase (TTL).
For `Nc1ccc(CC(N)C(=O)O)cc1` (stereo not drawn) [4-Aminophenylalanine], the Ki was > 4000 µM.
Work on `NC(Cc1ccc(O)c(C=O)c1)C(=O)O` (stereo not drawn) [3-Formyltyrosine] yielded a Ki of 300 µM.
Work on `[N-]=[N+]=Nc1cc(CC(N)C(=O)O)ccc1O` (stereo not drawn) [3-Azidotyrosine] yielded a Ki of 200 µM.
